US5545669A, “Anti-inflammatory compounds” (priority 1994, dated 1996)

Key:
Type in all cases: cell-based
[1] = tested on: PGE2 release by human monocytes; assay: Assay (f): stimulated eicosanoid release by human monocytes, Prostaglandin E2; details: Monocyte, 0.25 h, A23187 1 μM, 15 min
Description: (§1) Human Monocyte Isolation. Leukocyte-rich leukopaks obtained from Biological Specialties (Lansdale, Pa.) were collected from male volunteers who were not taking antiinflammatory drugs. Leukopaks were centrifuged (90×g for 15 min) twice to remove the platelet-rich plasma. The cell pellet was washed by centrifugation and resuspended in HBSS without Ca^2+ or Mg^2+. Histopaque 1077 was layered under the cell suspension and centrifuged at 400×g for 30 min to obtain the buffy coat. The interfacial buffy coat, containing monocytes and lymphocytes, was removed and saved. The buffy coat was washed twice with HBSS Without Ca^2+ or Mg^2+ by centrifugation. The cell pellet (4-6×10^8 cells/30 mls) was resuspended in iso-osmotic media (RPMI-1640, 10% heat inactivated fetal bovine serum (FBS), 0.2 mM L-glutamine, 2.5 mM HEPES) and layered over an equal volume of 46% Percol mixture (10X PBS/Percol; 9.25/0.75) and 54% iso-osmotic media and centrifuged for 30 min at 1000×g (Marshall and Roshak, Biochem. Cell Biol. 71: 331-339, 1993). The monocyte population located at the interface of the Percoll gradient was removed and washed twice in HBSS without Ca^2+ or Mg^2+.
(§2) Measurement of Stimuli-Induced Eicosanoid Release Monocytes (5×10^6 /ml) were incubated as a suspension in serum-free RPMI-1640 medium containing the vehicle DMSO (<1%) or drug for 30 min at 27° C. after which vehicle or stimuli was added for the indicated time. The stimulating agent is solubilized in DMSO and appropriate vehicle controls were included in all experiments. The amount of stimuli was chosen from the linear portion of a concentration versus product curve usually representing 60-80% maximal stimulation over the indicated incubation time at 37° C. (A23187, 1 μM,(15 min). The reaction was terminated by reduction of pH through addition of citric acid and centrifugation (10 min, 400×g, 4° C.). Cell viability was monitored before and after experiments using trypan blue exclusion. The cell-free media was decanted and stored at -70° C. until analyzed. Prostaglandin E2 and LTC4 were directly measured in cell-free media using enzyme immunoassay (EIA) kits purchased from Caymen Chemical Co. (Ann Arbor, Mich.). Sample or standard dilutions were made with appropriate media and analyzed in triplicate. Results were obtained by extrapolation from a standard curve prepared in the media and expressed as pg or ng/ml of sample.

human neutrophils = assay: Assay (c): Arachidonic acid release assay, A23187-challenged human neutrophils; details: calcium ionophore A23187 2 μM
Description: Human neutrophils are obtained in the laboratory using three different methods. One method uses leukophoresis packs from normal humans and neutrophils are isolated using the histopaque-1077 technique. The blood is centrifuged at 300×g for 10 minutes. The cell pellets are resuspended in PBS composed of 137 mM NaCI, 8.8 mM Na2HPO4, 1.5 mM KH2 PO4, 2.7 mM KCI (Dulbecco's Gibco Laboratories, Long Island, N.Y.) and layered over histopaque-1077 (Sigma, St. Louis, Mo.). The pellets are collected after centrifugation (300×g for 30 minutes) and washed once in PBS. The cell pellets are exposed briefly to deionized water to lyse any erythrocytes. The remaining cells are collected by centrifugation, suspended in PBS, counted and identified after cytospinning and staining. The final leukocyte preparation will be of greater than 95% purity and viability.
The second method isolates human neutrophils from fresh heparinized normal blood using the Histopaque-1077 technique. […] The remaining cells are collected by centrifugation, suspended in PBS, counted and identified after cytospinning and staining. […]
The third method isolates human neutrophils from freshly drawn heparinized normal blood using the Percoll technique. […] The neutrophils are suspended in PBS, counted and identified after cytospinning and staining. […]

[2] = tested on: LTC4 release by human monocytes; assay: Assay (f): stimulated eicosanoid release by human monocytes, LTC4; details: Monocyte, 0.25 h, A23187 1 μM, 15 min
Description: as §1, §2

O=C(O)c1ccccc1Oc1ccc(C(F)(F)F)cc1NS(=O)(=O)c1cc(C(F)(F)F)cc(C(F)(F)F)c1 [Example 1, 2-[2-[3,5-Bis(trifluoromethyl)phenylsulfonamido]-4-trifluoromethylphenoxy]benzoic acid]
IC50 [1]: > 30 µM | inhibition of arachidonic acid release (human neutrophils): positive activity | IC50 [2]: 300 nM
